Activity calls are given as the source filed them. The rule behind the calls is not given here.
Assays:
[1] = Toxicity in C57BL/6 mouse assessed as change in LDH1 level at 50 to 200 mg/kg/day treated for 5 days; assay type: organism-based; conditions: in vivo, 120 h, dose 50-200 mg/kg/day, time 5 day
[2] = system: SH-SY5Y; assay: Cytoprotective activity in human SH-SY5Y cells transfected with alpha-synuclein (unknown origin) assessed as cell viability at 100 uM by CCK8 assay relative to control; assay type: functional; conditions: read-out: Activity
[3] = system: Mus musculus; assay: Downregulation of alpha-synuclein level in substantia nigra pars compacta of MPTP-treated C57BL/6 mouse at 50 mg/kg/day, iv treated for 5 days by immunoblot analysis; assay type: functional, organism-based; conditions: time 5.0 day
[4] = target: T1, Alpha-synuclein (Homo sapiens, UniProt P37840); assay: Induction of alpha-synuclein (unknown origin) degradation overexpressed in HEK293T cells pretreated with BafA1 at 50 uM incubated for 24 hrs by immunoblot analysis; assay type: cell-based
[5] = target: T1, Alpha-synuclein; assay: Induction of alpha-synuclein (unknown origin) degradation overexpressed in HEK293T cells infected with adenovirus expressing mCherry-EGFP-LC3B at 50 uM incubated for 3 hrs by immunoblot analysis; assay type: cell-based
[6] = system: HEK-293T; assay: Downregulation of EIF4H expression in HEK293T cells at 100 uM incubated for 24 hrs by proteomic profiling analysis; assay type: functional, cell-based; conditions: Homo sapiens
[7] = Drug localization in HEK293T cells overexpressing mCherry-fused alpha-synuclein (unknown origin) assessed as puncta formation of alpha-synuclein at 50 uM incubated for 2 hrs by LyTG staining based confocal laser scanning microscopy; assay type: ADME, cell-based; conditions: human, hek-293t
[8] = Drug localization in HEK293T cells overexpressing mCherry-fused alpha-synuclein (unknown origin) assessed as puncta formation of alpha-synuclein at 50 uM incubated for 2 hrs by MDC staining based confocal laser scanning microscopy; assay type: ADME, cell-based; conditions: human, hek-293t
[9] = system: SH-SY5Y; assay: Cytoprotective activity against CCCP-induced cytotoxicity in human SH-SY5Y cells assessed as cell viability at 100 uM by CCK8 assay; assay type: functional, cell-based
[10] = target: T1, Alpha-synuclein; assay: Induction of alpha-synuclein (unknown origin) degradation overexpressed in HEK293T cells infected with adenovirus expressing mCherry-EGFP-LC3B incubated for 24 hrs by immunoblot analysis; assay type: cell-based
[11] = target: T1, Alpha-synuclein; assay: Induction of alpha-synuclein (unknown origin) degradation overexpressed in HEK293T cells infected with adenovirus expressing mCherry-EGFP-LC3B at 50 uM incubated upto 24 hrs by immunoblot analysis; assay type: cell-based
[12] = target: T1, Alpha-synuclein; assay: Induction of alpha-synuclein (unknown origin) degradation overexpressed in HEK293T cells with LC3B knockdown at 50 uM incubated for 24 hrs by immunoblot analysis; assay type: cell-based
[13] = Toxicity in C57BL/6 mouse assessed as change in CKMB level at 50 to 200 mg/kg/day treated for 5 days; assay type: organism-based; conditions: in vivo, 120 h, dose 50-200 mg/kg/day, time 5 day
[14] = system: HEK-293T; assay: Downregulation of NME1 expression in HEK293T cells at 100 uM incubated for 24 hrs by proteomic profiling analysis; assay type: functional, cell-based; conditions: Homo sapiens
[15] = Toxicity in C57BL/6 mouse assessed as histological change in heart at 50 to 200 mg/kg/day treated for 5 days by H and E staining based analysis; assay type: organism-based; conditions: in vivo, 120 h, dose 50-200 mg/kg/day, time 5 day
[16] = Chemical stability of compound in cell culture medium at 50 uM measured for 24 hrs by HPLC analysis; assay type: physicochemical
[17] = system: HEK-293T; assay: Downregulation of NACA expression in HEK293T cells at 100 uM incubated for 24 hrs by proteomic profiling analysis; assay type: functional, cell-based; conditions: Homo sapiens
[18] = system: HEK-293T; assay: Downregulation of MYL12A expression in HEK293T cells at 100 uM incubated for 24 hrs by proteomic profiling analysis; assay type: functional, cell-based; conditions: Homo sapiens
[19] = Toxicity in C57BL/6 mouse assessed as change in creatine kinase level at 50 to 200 mg/kg/day treated for 5 days; assay type: organism-based; conditions: in vivo, 120 h, dose 50-200 mg/kg/day, time 5 day
[20] = system: HEK-293T; assay: Downregulation of AGPS expression in HEK293T cells at 100 uM incubated for 24 hrs by proteomic profiling analysis; assay type: functional, cell-based; conditions: Homo sapiens
[21] = Drug localization in HEK293T cells overexpressing mCherry-fused alpha-synuclein (unknown origin) assessed as colocalization of lysosomes at 50 uM incubated for 2 hrs by LyTG staining based confocal laser scanning microscopy; assay type: ADME, cell-based; conditions: human, hek-293t
[22] = target: T2, Microtubule-associated protein 1 light chain 3 beta (Homo sapiens, UniProt Q9GZQ8); assay: Induction of LC3B-mediated autophagy flux in HEK293T cells overexpressing alpha-synuclein (unknown origin) assessed as increase in LAMP1 level upto 100 uM incubated for 4 hrs by immunoblot analysis; assay type: cell-based
[23] = system: Mus musculus; assay: Downregulation of aggregated alpha-synuclein level in substantia nigra pars compacta of MPTP-treated C57BL/6 mouse at 50 mg/kg/day, iv treated for 5 days by IHC analysis; assay type: functional, organism-based; conditions: time 5.0 day
[24] = Toxicity in C57BL/6 mouse assessed as change in creatinine level at 50 to 200 mg/kg/day treated for 5 days; assay type: organism-based; conditions: in vivo, 120 h, dose 50-200 mg/kg/day, time 5 day
[25] = system: HEK-293T; assay: Downregulation of SMAP expression in HEK293T cells at 100 uM incubated for 24 hrs by proteomic profiling analysis; assay type: functional, cell-based; conditions: Homo sapiens
[26] = Toxicity in C57BL/6 mouse assessed as ataxia at 50 to 200 mg/kg/day treated for 5 days; assay type: organism-based; conditions: in vivo, 120 h, dose 50-200 mg/kg/day, time 5 day
[27] = system: Mus musculus; assay: Downregulation of phosphorylated alpha-synuclein at S129 residue level in substantia nigra pars compacta of MPTP-treated C57BL/6 mouse at 50 mg/kg/day, iv treated for 5 days by dot blot analysis; assay type: functional, organism-based; conditions: time 5.0 day
[28] = Toxicity in C57BL/6 mouse assessed as tremor at 50 to 200 mg/kg/day treated for 5 days; assay type: organism-based; conditions: in vivo, 120 h, dose 50-200 mg/kg/day, time 5 day
[29] = target: T2, Microtubule-associated protein 1 light chain 3 beta; assay: Induction of LC3B-mediated autophagy flux in HEK293T cells overexpressing alpha-synuclein (unknown origin) cotransfected with adenovirus-packaged plasmid encoding mCherry-EGFP-fused LC3B assessed as increase in number of autolysosomes incubated for 4 hrs by confocal laser scanning microscopy; assay type: cell-based; conditions: dose <= 100.0 µM
[30] = Toxicity in C57BL/6 mouse assessed as change in cardiac electrophysiology at 50 to 100 mg/kg/day treated for 5 days by ECG analysis; assay type: organism-based; conditions: in vivo, 120 h, dose 50-100 mg/kg/day, time 5 day
[31] = target: T1, Alpha-synuclein; assay: Induction of alpha-synuclein (unknown origin) degradation overexpressed in HEK293T cells at 50 uM incubated for 24 hrs in presence of Rapamycin by immunoblot analysis; assay type: cell-based
[32] = Toxicity in C57BL/6 mouse assessed as depression in ST segment of cardiac electrophysiology at 200 mg/kg/day treated for 5 days by ECG analysis; assay type: organism-based; conditions: in vivo, 120 h, time 5 day
[33] = system: HEK-293T; assay: Downregulation of VAT1 expression in HEK293T cells at 100 uM incubated for 24 hrs by proteomic profiling analysis; assay type: functional, cell-based; conditions: Homo sapiens
[34] = target: T2, Microtubule-associated protein 1 light chain 3 beta; assay: Induction of LC3B-mediated autophagy flux in HEK293T cells overexpressing alpha-synuclein (unknown origin) cotransfected with adenovirus-packaged plasmid encoding mCherry-EGFP-fused LC3B assessed as increase in number of autophagosomes incubated for 4 hrs by confocal laser scanning microscopy; assay type: cell-based; conditions: dose <= 100.0 µM
[35] = Toxicity in C57BL/6 mouse assessed as change in urea level at 50 to 200 mg/kg/day treated for 5 days; assay type: organism-based; conditions: in vivo, 120 h, dose 50-200 mg/kg/day, time 5 day
[36] = system: SH-SY5Y; assay: Cytoprotective activity in human SH-SY5Y cells transfected with alpha-synuclein (unknown origin) assessed as cell viability at 50 uM by CCK8 assay relative to control; assay type: functional; conditions: read-out: Activity

In the case of `CC(C)C[C@H](NC(=O)[C@H](Cc1c[nH]cn1)NC(=O)[C@@H](NC(=O)[C@H](Cc1c[nH]c2ccccc12)NC(=O)[C@H](CC(=O)O)NC(=O)[C@H](CC(=O)O)NC(=O)[C@H](CC(=O)O)NC(=O)CNC(=O)CNC(=O)[C@H](CO)NC(=O)[C@H](CO)NC(=O)CNC(=O)[C@H](CO)NC(=O)CNC(=O)[C@H](CCCNC(=N)N)NC(=O)[C@@H](NC(=O)[C@H](CCCCN)NC(=O)[C@H](CO)NC(=O)CNC(=O)[C@@H](NC(=O)[C@H](Cc1ccc(O)cc1)NC(=O)[C@H](CC(C)C)NC(=O)[C@@H](NC(=O)CN)C(C)C)C(C)C)[C@H](C)O)[C@@H](C)O)C(=O)N[C@@H](CO)C(=O)N[C@@H](CO)C(=O)N[C@@H](Cc1ccc(O)cc1)C(=O)NCC(=O)N[C@@H](CCCNC(=N)N)C(=O)N[C@@H](CCCCN)C(=O)N[C@@H](CCCCN)C(=O)N[C@@H](CCCNC(=N)N)C(=O)N[C@@H](CCCNC(=N)N)C(=O)N[C@@H](CCC(N)=O)C(=O)N[C@@H](CCCNC(=N)N)C(=O)N[C@@H](CCCNC(=N)N)C(=O)N[C@@H](CCCNC(=N)N)C(=O)O`, the Activity [1] is reported as “Non-Toxic”, the viability at 100 µM [2] is reported as 94.9% and the Activity [3] is reported as “Active”. For the same compound, the Activity [4] was “inactive”, the Activity [5] was “Active” and the Activity [6] was “Active”. The Drug uptake [7] was “Active”, the Drug uptake [8] was “Active” and the Activity [9] was “inactive”. For the same compound, the DC50 [10] was 46.8 µM, the Activity ([10]; dose <= 200.0 µM) was “Dose-Dependent Effect” and the Activity [11] was “Active”. The Activity [12] was “Active”, the Activity [13] was “Non-Toxic” and the Activity [14] was “Active”. The Activity [15] was “Non-Toxic”, the Stability [16] was “Stable” and the Activity [17] was “Active”. For the same compound, the Activity [18] was “Active”, the Activity [19] was “Non-Toxic” and the Activity [20] was “Active”. The Drug uptake [21] was “Active”, the Activity [22] was “Active” and the Activity [23] was “Active”. For the same compound, the Activity [24] was “Non-Toxic”, the Activity [25] was “Active” and the Activity [26] was “Non-Toxic”. The Activity [27] was “Active”, the Activity [28] was “Non-Toxic” and the Activity [29] was “Dose-Dependent Effect”. The Activity [30] was “Non-Toxic”, the Activity [31] was “Active” and the Activity [32] was “Toxic”. For the same compound, the Activity [33] was “Active”, the Activity [34] was “Dose-Dependent Effect” and the Activity [35] was “Non-Toxic”. For the same compound, the viability at 50 µM [36] was 91.8%.

Reference: ChEMBL document CHEMBL5321295, “Targeted Degradation of Alpha-Synuclein by Autophagosome-Anchoring Chimera Peptides” (J Med Chem, 2023)
